# Target: human Autotaxin protein (Homo sapiens, UniProt Q13822)
# Test: Evaluation of inhibitory activity against human Autotaxin protein (18:1 LysoPC substrate, choline assay kit, absorbance 570 nm)
# Type: biochemical
# Settings: compound at 500 nM, 2 hours at 37° C.
# Method: The solution of each synthesized compound (80 uM, 100% dimethyl sulfoxide) was sequentially diluted 5 times with dimethyl sulfoxide to prepare 6 concentrations. Each concentration of compound was diluted two-fold with 1× test buffer (50 mM Tris-Cl (pH 8.0), 5 mM KCl, 1 mM CaCl2), 1 mM MgCl2, 140 mM NaCl, deionized water, 1 mg/mL BSA), and 1 uL (1.25% dimethyl sulfoxide) of this diluted mixture was dispensed into each well of a 96 well clear round bottom plate. 9 uL of 1× test buffer were added to each well, followed by the addition of 20 uL of 240 nM human Autotaxin protein (buffer: 50 mM Tris-HCl, pH 8.0, with 150 mM sodium chloride and 20% glycerol). 10 uL of sonicated 360 uM 18:1 LysoPC (diluted with 1× test buffer) were added to each well. The reaction was performed for 2 hours in a shaking incubator at 37° C., and a secondary reaction mixture (choline assay kit, KA1662) (65 uL of 1× test buffer: 1 uL of choline oxidase: 1 uL of dye probe) was prepared. 60 uL of the secondary reaction mixture were added to the reaction plate and reacted on a shaker for 30 minutes. Using a SpectraMax iD3 microplate reader, the absorbance was measured at a wavelength of 570 nm. The percentage of inhibition activity (% inhibition) was calculated by the Formula: (1−Absorbancetestgroup/Absorbancecontrol group)×100.
inhibition at 0.5 µM,inhibition (%) at 500 nM,SMILES
30.2%,,"Fc1cc2c(cc1F)CC(Nc1ncc(-c3nnc(N4CCC(c5nnc(C(F)(F)F)o5)CC4)o3)cn1)C2 [Example 24, N-(5,6-difluoro-2,3-dihydro-1H-inden-2-yl)-5-(5-(4-(5-(trifluoromethyl)-1,3,4-oxadiazol-2-yl)piperidin-1-yl)-1,3,4-oxadiazol-2-yl)pyrimidin-2-amine]"
31.1%,,"Fc1cc2c(cc1F)CC(Nc1ncc(-c3nnc(N4CCC(c5nnc(C(F)F)o5)CC4)o3)cn1)C2 [Example 25, N-(5,6-difluoro-2,3-dihydro-1H-inden-2-yl)-5-(5-(4-(5-(difluoromethyl)-1,3,4-oxadiazol-2-yl)piperidin-1-yl)-1,3,4-oxadiazol-2-yl)pyrimidin-2-amine]"
27.9%,,"Fc1cc2c(cc1F)CC(Nc1ncc(-c3nnc(N4CCC(c5ncon5)CC4)o3)cn1)C2 [Example 26, 5-(5-(4-(1,2,4-Oxadiazol-3-yl)piperidin-1-yl)-1,3,4-oxadiazol-2-yl)-N-(5,6-difluoro-2,3-dihydro-1H-inden-2-yl)pyrimidin-2-amine]"
29%,,"Fc1cc2c(cc1F)CC(Nc1ncc(-c3nnc(N4CCC(c5nnco5)CC4)o3)cn1)C2 [Example 27, 5-(5-(4-(1,3,4-Oxadiazol-2-yl)piperidin-1-yl)-1,3,4-oxadiazol-2-yl)-N-(5,6-difluoro-2,3-dihydro-1H-inden-2-yl)pyrimidin-2-amine]"
52.5%,,"Fc1cc2c(cc1F)CC(Nc1ncc(-c3nnc(N4CCC(n5cnnn5)CC4)o3)cn1)C2 [Example 28, 5-(5-(4-(1H-Tetrazol-1-yl)piperidin-1-yl)-1,3,4-oxadiazol-2-yl)-N-(5,6-difluoro-2,3-dihydro-1H-inden-2-yl)pyrimidin-2-amine]"
90.8%,,"Cc1nn[nH]c1C1CCN(c2nnc(-c3cnc(NC4Cc5cc(F)c(F)cc5C4)nc3)o2)CC1 [Example 29, N-(5,6-difluoro-2,3-dihydro-1H-inden-2-yl)-5-(5-(4-(4-methyl-1H-1,2,3-triazol-5-yl)piperidin-1-yl)-1,3,4-oxadiazol-2-yl)pyrimidin-2-amine]"
97.8%,,"O=C(/C=C/c1cnc(NC2Cc3cc(F)c(F)cc3C2)nc1)N1CCC(c2cnn[nH]2)CC1 [Example 30, (E)-1-(4-(1H-1,2,3-triazol-5-yl)piperidin-1-yl)-3-(2-((5,6-difluoro-2,3-dihydro-1H-inden-2-yl)amino)pyrimidin-5-yl)prop-2-en-1-one]"
8.1%,,"c1ccc(Cn2nncc2C2CCN(c3cnc(-c4cnc(NC5Cc6ccccc6C5)nc4)o3)CC2)cc1 [Example 31, 5-(5-(4-(1-Benzyl-1H-1,2,3-triazol-5-yl)piperidin-1-yl)oxazol-2-yl)-N-(2,3-dihydro-1H-inden-2-yl)pyrimidin-2-amine]"
34.3%,,"CN(c1ncc(-c2nnc(N3CCC(c4cnn[nH]4)CC3)o2)cn1)C1Cc2cc(F)c(F)cc2C1 [Example 32, 5-(5-(4-(1H-1,2,3-triazol-5-yl)piperidin-1-yl)-1,3,4-oxadiazol-2-yl)-N-(5,6-difluoro-2,3-dihydro-1H-inden-2-yl)-N-methylpyrimidin-2-amine]"
78.4%,,"Cn1nncc1C1CCN(c2nnc(-c3cnc(NC4Cc5cc(F)c(F)cc5C4)nc3)o2)CC1 [Example 33, N-(5,6-difluoro-2,3-dihydro-1H-inden-2-yl)-5-(5-(4-(1-methyl-1H-1,2,3-triazol-5-yl)piperidin-1-yl)-1,3,4-oxadiazol-2-yl)pyrimidin-2-amine]"
17.3%,,"Cn1cc(C2CCN(c3nnc(-c4cnc(NC5Cc6cc(F)c(F)cc6C5)nc4)o3)CC2)nn1 [Example 34, N-(5,6-difluoro-2,3-dihydro-1H-inden-2-yl)-5-(5-(4-(1-methyl-1H-1,2,3-triazol-4-yl)piperidin-1-yl)-1,3,4-oxadiazol-2-yl)pyrimidin-2-amine]"
96%,,"c1ccc2c(c1)CC(Nc1ncc(C3CC(N4CCC(c5cnn[nH]5)CC4)=NO3)cn1)C2 (stereo not shown) [Example 35, N-indan-2-yl-5-[3-[4-(1H-triazol-5-yl)-1-piperidyl]-4,5-dihydroisoxazol-5-yl]pyrimidin-2-amine]"
53.4%,,"c1ccc2c(c1)CC(Nc1ncc(-c3cc(N4CCC(c5cnn[nH]5)CC4)no3)cn1)C2 [Example 36, 5-(3-(4-(1H-1,2,3-triazol-5-yl)piperidin-1-yl)isoxazol-5-yl)-N-(2,3-dihydro-1H-inden-2-yl)pyrimidin-2-amine]"
53.2%,,"Fc1cc2c(cc1F)CC(Nc1ncc(-c3cc(N4CCC(c5cnn[nH]5)CC4)no3)cn1)C2 [Example 38, 5-(3-(4-(1H-1,2,3-triazol-5-yl)piperidin-1-yl)isoxazol-5-yl)-N-(5,6-difluoro-2,3-dihydro-1H-inden-2-yl)pyrimidin-2-amine]"
97.2%,,"Fc1ccc2c(c1)CC(Nc1ncc(C3CC(N4CCC(c5cnn[nH]5)CC4)=NO3)cn1)C2 (stereo not shown) [Example 39, 5-(3-(4-(1H-1,2,3-triazol-5-yl)piperidin-1-yl)-4,5-dihydroisoxazol-5-yl)-N-(5-fluoro-2,3-dihydro-1H-inden-2-yl)pyrimidin-2-amine]"
68.5%,,"Fc1ccc2c(c1)CC(Nc1ncc(-c3cc(N4CCC(c5cnn[nH]5)CC4)no3)cn1)C2 (stereo not shown) [Example 40, 5-(3-(4-(1H-1,2,3-triazol-5-yl)piperidin-1-yl)isoxazol-5-yl)-N-(5-fluoro-2,3-dihydro-1H-inden-2-yl)pyrimidin-2-amine]"
,40.6%,"Fc1cc(F)cc(CNc2ncc(C3CC(N4CCC(c5cnn[nH]5)CC4)=NO3)cn2)c1 (stereo not shown) [Example 41, N-[(3,5-difluorophenyl)methyl]-5-[3-[4-(1H-triazol-5-yl)-1-piperidyl]-4,5-dihydroisoxazol-5-yl]pyrimidin-2-amine]"
,8.6%,"c1ccc(CNc2ncc(C3CC(N4CCC(c5cnn[nH]5)CC4)=NO3)cn2)cc1 (stereo not shown) [Example 42, N-benzyl-5-[3-[4-(1H-triazol-5-yl)-1-piperidyl]-4,5-dihydroisoxazol-5-yl]pyrimidin-2-amine]"
,4.6%,"Fc1ccc(CNc2ncc(C3CC(N4CCC(c5cnn[nH]5)CC4)=NO3)cn2)cc1F (stereo not shown) [Example 43, N-[(3,4-difluorophenyl)methyl]-5-[3-[4-(1H-triazol-5-yl)-1-piperidyl]-4,5-dihydroisoxazol-5-yl]pyrimidin-2-amine]"
71.3%,,"Clc1cc(Cl)cc(CNc2ncc(C3CC(N4CCC(c5cnn[nH]5)CC4)=NO3)cn2)c1 (stereo not shown) [Example 44, 5-(3-(4-(1H-1,2,3-triazol-5-yl)piperidin-1-yl)-4,5-dihydroisoxazol-5-yl)-N-(3,5-dichlorobenzyl)pyrimidin-2-amine]"
1.6%,,"c1cc2c(cc1CNc1ncc(C3CC(N4CCC(c5cnn[nH]5)CC4)=NO3)cn1)OCO2 (stereo not shown) [Example 45, 5-(3-(4-(1H-1,2,3-triazol-5-yl)piperidin-1-yl)-4,5-dihydroisoxazol-5-yl)-N-(benzo[d][1,3]dioxol-5-ylmethyl)pyrimidin-2-amine]"
29.2%,,"Clc1cc(Cl)cc(CCNc2ncc(C3CC(N4CCC(c5cnn[nH]5)CC4)=NO3)cn2)c1 (stereo not shown) [Example 47, 5-(3-(4-(1H-1,2,3-triazol-5-yl)piperidin-1-yl)-4,5-dihydroisoxazol-5-yl)-N-(3,5-dichlorophenethyl)pyrimidin-2-amine]"
3.4%,,"CS(=O)(=O)c1cccc(CNc2ncc(C3CC(N4CCC(c5cnn[nH]5)CC4)=NO3)cn2)c1 (stereo not shown) [Example 48, 5-(3-(4-(1H-1,2,3-triazol-5-yl)piperidin-1-yl)-4,5-dihydroisoxazol-5-yl)-N-(3-(methylsulfonyl)benzyl)pyrimidin-2-amine]"
1.2%,,"CS(=O)(=O)c1ccc(CNc2ncc(C3CC(N4CCC(c5cnn[nH]5)CC4)=NO3)cn2)cc1 (stereo not shown) [Example 49, 5-(3-(4-(1H-1,2,3-triazol-5-yl)piperidin-1-yl)-4,5-dihydroisoxazol-5-yl)-N-(4-(methylsulfonyl)benzyl)pyrimidin-2-amine]"
7%,,"c1ccc2c(c1)CC(Nc1ncc(C3CC(N4CCC(c5nnn[nH]5)CC4)=NO3)cn1)C2 (stereo not shown) [Example 50, 5-(3-(4-(1H-tetrazol-5-yl)piperidin-1-yl)-4,5-dihydroisoxazol-5-yl)-N-(2,3-dihydro-1H-inden-2-yl)pyrimidin-2-amine]"
13.2%,,"FC(F)c1nnc(C2CCN(C3=NOC(c4cnc(NC5Cc6ccccc6C5)nc4)C3)CC2)o1 (stereo not shown) [Example 51, 5-(3-(4-(5-(Difluoromethyl)-1,3,4-oxadiazol-2-yl)piperidin-1-yl)-4,5-dihydroisoxazol-5-yl)-N-(2,3-dihydro-1H-inden-2-yl)pyrimidin-2-amine]"

SMILES,inhibition at 0.5 µM,inhibition (%) at 500 nM
"Fc1cc2c(cc1F)CC(Nc1ncc(C3CC(N4CCC(c5cnn[nH]5)CC4)=NO3)cn1)C2 (stereo not shown) [Example 37, N-(5,6-difluoroindan-2-yl)-5-[3-[4-(1H-triazol-5-yl)-1-piperidyl]-4,5-dihydroisoxazol-5-yl]pyrimidin-2-amine]",,93.2%
"c1cc2c(cc1CNc1ncc(-c3cc(N4CCC(c5cnn[nH]5)CC4)no3)cn1)OCO2 [Example 46, N-(1,3-benzodioxol-5-ylmethyl)-5-[3-[4-(1H-triazol-5-yl)-1-piperidyl]isoxazol-5-yl]pyrimidin-2-amine]",,1%

# From patent US12145929B2, “Piperidine derivative and pharmaceutical composition for inhibiting autotaxin comprising same” (NEXTGEN BIOSCIENCE CO., LTD., priority 2021, dated 2024)
